Literature values as cited in patent US20130071326A1, “UNIVERSAL CELL-DIRECTED THERANOSTICS” (Board of Regents of the University of Texas System, priority 2010, published 2013).

System: tumor
Conditions: conventional DOX treatments, at best

COc1cccc2c1C(=O)c1c(O)c3c(c(O)c1C2=O)C[C@@](O)(C(=O)CO)C[C@@H]3O[C@H]1C[C@H](N)[C@H](O)[C@H](C)O1 [DOX, doxorubicin]
accumulation of the drug at the tumor: 0.8 to 5 µg
